US7303740B2, “Methods for the diagnosis and treatment of breast cancer” (Albert Einstein College of Medicine of Yeshiva University, priority 2000, dated 2007)

How the values were obtained:
mgNIS [1] = assay: Immunoblot analysis of mgNIS in MG from ovariectomized nubile mice treated with hormones; format: in vivo; settings: for mgNIS expression in mammary tissue (immunoblot): three consecutive days
Procedure: FIG. 4. Immunoblot analysis of MG from ovariectomized nubile mice treated with various hormones. Membrane fractions isolated from MG of nubile mice were either sham treated with PBS (lane 1) or treated for three consecutive days with: progesterone (1 I.U.) (lane 2); 17-β-estradiol (1 μg) (lane 3); 17-β-estradiol and progesterone (1 I.U.) (lane 4); oxytocin (1 I.U.) (lane 5); oxytocin and 17-β-estradiol (lane 6); prolactin (10 I.U.) (lane 7); oxytocin, prolactin, and 17-β-estradiol (lane 8); and progesterone together with oxytocin, prolactin, and 17-β-estradiol (lane 9). Isolated membrane fractions were electrophoresed and electrotransferred onto nitrocellulose, followed by immunoblot analysis with anti-NIS Ab.
Oxytocin (α-hypophamine), prolactin, progesterone (4-pregnene-3,20-dione), and 17-β-estradiol (1,3,5[10]-estratriene-3,17-β-diol) were purchased from Sigma, St. Louis, Mo. Either ovariectomized or surgically unmodified 8- to 10-week-old CD1 (ICR) IBR mice (Charles River Laboratories, Wilmington, Mass.) were treated once a day with subcutaneous injections of 1 I.U. of oxytocin, 10 I.U. of prolactin, 1 μg 17-β-estradiol, or 1 I.U. of progesterone (intraperitoneally) for three consecutive days, either individually or in the indicated combination. A final injection was done on the fourth day; two hours later, mammary glands were removed for analysis. Oxytocin and prolactin were dissolved in sterile distilled water, 17-β-estradiol was dissolved in 90% alcohol, and progesterone was dissolved in sesame oil (Sigma, St. Louis, Mo.). Except for progesterone, indicated doses of hormones were injected after being taken in 200 μl sterile PBS solution. Progesterone (final concentration 10 mg/ml) was injected into 100 μl of sesame oil. Control animals which were sham treated with sesame oil were systematically included in experiments when progesterone was administered. At least three identically-treated animals were analyzed in each case.
Sprague-Dawley female rats (over 8 weeks old) at different physiological stages, and hormonally-treated CD1 (ICR) BR female mice, were sacrificed in a CO2 chamber before excision of thoracic, abdominal, and inguinal MG. Organs, which were removed from mice or rats were blended with a polytron homogenizer (Brinkmann Instruments, Westbury, N.Y.) for 1 min, and homogenized with a stirrer-type glass-teflon homogenizer (Caframo-Wiarton, Ontario, Canada) (Levy et al., 1997). Membrane fractions were prepared in the presence of protease inhibitors, as described above (Kaminsky et al., 1994). SDS-PAGE electrophoresis and electroblotting to nitrocellulose were performed as described in Levy et al. (1997). All samples were diluted 1:2 with loading buffer (Harlow and Lane, 1988) and heated at 37° C. for 30 min prior to electrophoresis. […]

mgNIS [2] = assay: mgNIS expression (immunoblot) and 125I- transport in MG of hormonally treated intact nubile mice; format: in vivo; settings: intact nubile animals
Procedure: (§1) FIG. 3. In vivo effect of oxytocin on functional expression of mgNIS in nubile mice. (A) Radioiodide transport in MG of oxytocin-treated nubile mice. Seven- to eight-week-old female mice were treated subcutaneously with phosphate buffered saline solution (PBS), 10 I.U. of prolactin (PRL), 1 I.U. of oxytocin (OXY), or prolactin and oxytocin (PRL+OXY) for three days. Then, 1 μCi of ^125I^− was injected intraperitoneally. […] (B) Immunoblot analysis of MG from hormonally-treated mice. […] Isolated membrane fractions were electrophoresed, electrotransferred onto nitrocellulose, and analyzed by immunoblots using anti-NIS Ab. […] Perchlorate-inhibited accumulation of ^99mTcO4^− was detected in stomach and MG of OXY-treated animals. (D) Quantification of ^99mTcO4^− accumulation in various organs from OXY- or PBS-treated mice. Tracer accumulation was monitored using image analysis software (ImageQuant, Macintosh). […] Counts were divided by the weight of the organs (cpm/mg tissue), and standardized by dividing them by cpm detected in the blood (cpm/mg blood) of each animal. ^99mTcO4^− accumulation in the organs from: PBS-treated animals (open bars); OXY-treated animals (dotted bars); and OXY-treated animals after ^99mTcO4^−+perchlorate injection (dark bars). […]

mgNIS [3] = target: T1, mgNIS (Mus musculus, UniProt Q99PN0); assay: Ex vivo scintigraphic imaging of 99mTcO4- accumulation in organs of oxytocin-treated nubile mice; design: Membrane fractions isolated from MG of nubile female mice; from tissue; host or cells: CD1 (ICR) mice (intact, ovariectomized, gestating) and MMTV-ras / MMTV-neu transgenic mice: mammary gland, mammary adenocarcinoma, stomach; settings: organs removed 30 min after tracer
T1 sequence (Q99PN0 1-618): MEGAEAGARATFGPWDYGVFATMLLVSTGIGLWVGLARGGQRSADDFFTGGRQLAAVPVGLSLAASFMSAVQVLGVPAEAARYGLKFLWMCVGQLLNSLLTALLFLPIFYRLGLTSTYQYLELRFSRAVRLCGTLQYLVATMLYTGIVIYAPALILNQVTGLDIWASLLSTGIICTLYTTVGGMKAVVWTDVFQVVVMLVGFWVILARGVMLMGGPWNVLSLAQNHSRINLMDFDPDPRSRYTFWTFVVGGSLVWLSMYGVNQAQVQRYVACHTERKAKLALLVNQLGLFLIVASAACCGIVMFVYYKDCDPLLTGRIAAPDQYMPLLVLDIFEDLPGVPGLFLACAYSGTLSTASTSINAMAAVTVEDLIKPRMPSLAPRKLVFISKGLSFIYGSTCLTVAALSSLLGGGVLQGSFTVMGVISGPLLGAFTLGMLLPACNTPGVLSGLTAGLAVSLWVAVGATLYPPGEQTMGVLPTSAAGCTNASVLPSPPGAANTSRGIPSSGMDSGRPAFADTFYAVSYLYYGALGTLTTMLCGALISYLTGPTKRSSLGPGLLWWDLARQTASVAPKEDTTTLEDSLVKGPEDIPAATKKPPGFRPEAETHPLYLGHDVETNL
Procedure: as §1

## C[C@]12CC[C@@H]3c4ccc(O)cc4CC[C@H]3[C@@H]1CC[C@@H]2O [17-β-estradiol, 1,3,5[10]-estratriene-3,17-β-diol]
mgNIS [1]
  mgNIS expression in mammary tissue (immunoblot): clearly discernible increase

## CC[C@H](C)[C@@H]1NC(=O)[C@H](Cc2ccc(O)cc2)NC(=O)[C@@H](N)CSSC[C@@H](C(=O)N2CCC[C@H]2C(=O)N[C@@H](CC(C)C)C(=O)NCC(N)=O)NC(=O)[C@H](CC(N)=O)NC(=O)[C@H](CCC(N)=O)NC1=O [oxytocin, α-hypophamine]
mgNIS [1]
  mgNIS expression in mammary tissue (immunoblot): did not cause an increase
mgNIS [2]; 1 I.U. s.c. for three days
  mgNIS expression in MG (immunoblot), leading to 125I- transport: induced mgNIS expression
mgNIS [3]
  perchlorate-inhibited 99mTcO4- accumulation in MGs versus sham-treated mice: significantly higher

## CC(=O)[C@H]1CC[C@H]2[C@@H]3CCC4=CC(=O)CC[C@]4(C)[C@H]3CC[C@]12C [progesterone, 4-pregnene-3,20-dione]
mgNIS [1]
  effect on 17-β-estradiol enhancement of mgNIS expression: did not interfere
  mgNIS expression when added to the 17-β-estradiol/oxytocin/prolactin combination: significantly decreased

B1: prolactin: a glycoprotein released from the anterior pituitary (protein, UniProt P01236 29-227, looked up)
Prolactin: LPICPGGAARCQVTLRDLFDRAVVLSHYIHNLSSEMFSEFDKRYTHGRGFITKAINSCHTSSLATPEDKEQAQQMNQKDFLSLIVSILRSWNEPLYHLVTEVRGMQEAPEAILSKAVEIEEQTKRLLEGMELIVSQVHPETKENEIYPVWSGLPSLQMADEESRLSAYYNLLHCLRRDSHKIDNYLKLLKCRIIHNNNC
mgNIS [2]; 10 I.U. prolactin with 1 I.U. oxytocin
  effect on upregulation of mgNIS by oxytocin: antagonized
